Laboratory results published in PubChem BioAssay (NCI).
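Protocol summary: plate cells (96-well), add compound at 5 concentrations, incubate 48 h, interpolate endpoints linearly. GI50 = concentration required for 50% inhibition of growth. TGI: total growth inhibition.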

What was measured:
Assay in all cases: NCI tumour cell line growth inhibition, 48 h
[1] = tested on: OVCAR-3 ovarian
[2] = tested on: SK-MEL-2 melanoma
[3] = tested on: KM12 colon
[4] = tested on: HT29 colon
[5] = tested on: A549 NSCLC
[6] = tested on: M14 melanoma
[7] = tested on: T-47D breast
[8] = tested on: SW-620 colon
[9] = tested on: OVCAR-5 ovarian
[10] = tested on: NCI/ADR-RES ovarian

Compound | TGI [1] [µM] | GI50 [2] [µM] | TGI [2] [µM] | TGI [3] [µM] | TGI [4] [µM] | TGI [5] [µM] | TGI [6] [µM] | TGI [7] [µM] | TGI [8] [µM] | TGI [9] [µM] | TGI [10] [µM] | GI50 [1] [µM] | GI50 [3] [µM] | GI50 [4] [µM] | GI50 [5] [µM] | GI50 [6] [µM] | GI50 [7] [µM] | GI50 [8] [µM] | GI50 [9] [µM] | GI50 [10] [µM]
NC(=O)c1ccc(NN=O)nc1 | > 100 | > 100 | > 100 | > 100 | > 100 | > 100 | > 100 | > 100 | > 100 | > 100 | > 100 |  |  |  |  |  |  |  |  | 
CNC(=O)OCc1c2ccncc2c(C)c2c1[nH]c1ccccc12 | 1.74 |  | 0.548 | 5.19 | 1.59 | 2.58 | 2.95 | 9.61 | 2.38 | 1.78 | 2.3 |  |  |  |  |  |  |  |  | 
Nc1nc2c(s1)CCc1c-2c(Br)n(Cc2ccccc2)c1Br | 13.8 | 21.6 | 43.4 | 33.3 | 27.7 | > 100 | 30.2 | 10.6 | 9.74 | 39.3 | 87.7 | 3.9 | 14 | 10.9 | 17.2 | 14.5 | 3.17 | 3.31 | 19.8 | 23.7
CS(=O)(=O)Nc1ccc(-c2cc(-c3ccccc3)cc(C(N)=O)c2N)cc1 | > 25 | > 25 | > 25 | > 25 | > 25 | > 25 | > 25 | > 25 | > 25 | > 25 | > 25 | > 23.8 | 20.5 | > 25 | 20.2 | > 25 | > 21.5 | > 25 | > 25 | > 25
N/N=C(\C(=O)Nc1ccc(Cl)cc1Cl)C(c1cnc2ccccc2n1)[N+](=O)[O-] (stereo unspecified) | > 100 |  | > 100 | > 100 | > 100 | > 100 | > 100 | > 100 | > 100 | > 100 | > 100 |  |  |  |  |  |  |  |  | 
C[C@H](Nc1ncnc2nc[nH]c12)c1cc2ccc(F)cc2nc1-c1ccccn1 | > 100 | > 100 | > 100 | > 100 | > 100 | > 100 | > 100 | 99.5 | > 100 | > 100 | > 100 | 34.3 | > 100 | > 100 | > 100 | > 100 | 17.2 | > 100 | > 77.2 | > 100
